From ChEMBL document CHEMBL4392857, “Isolation, Chiral-Phase Resolution, and Determination of the Absolute Configurations of a Complete Series of Stereoisomers of a Rearranged Acetophenone with Three Stereocenters” (2019)

Experiments:
HUVEC [1] = test: Cytoprotective effect against high glucose-induced oxidative stress in HUVEC assessed as cell viability at 1 uM incubated by MTT assay (reference value: 72.1 to 77.9%); type: functional; conditions: Homo sapiens, read-out: Activity
HUVEC [2] = test: Cytoprotective effect against high glucose-induced oxidative stress in HUVEC assessed as cell viability at 5 uM incubated by MTT assay (reference value: 72.1 to 77.9%); type: functional; conditions: Homo sapiens, read-out: Activity

For `COC(=O)[C@@]1(O)C(=O)[C@@]2(CC=C(C)C)C[C@H](O)C(C)(C)OC2=C1C(C)=O`, the viability at 1 µM (HUVEC [1]) was 79.9% and the viability at 5 µM (HUVEC [2]) was 82%.
With `COC(=O)[C@]1(O)C(=O)[C@@]2(CC=C(C)C)C[C@@H](O)C(C)(C)OC2=C1C(C)=O` the viability at 1 µM (HUVEC [1]) was 79.9% and the viability at 5 µM (HUVEC [2]) was 82%.
Compound `COC(=O)[C@@]1(O)C(=O)[C@@]2(CC=C(C)C)C[C@@H](O)C(C)(C)OC2=C1C(C)=O` has a viability at 1 µM (HUVEC [1]) of 101% and a viability at 5 µM (HUVEC [2]) of 101%.
In the case of `COC(=O)[C@@]1(O)C(=O)[C@]2(CC=C(C)C)C[C@@H](O)C(C)(C)OC2=C1C(C)=O`, the viability at 1 µM (HUVEC [1]) is reported as 75.6% and the viability at 5 µM (HUVEC [2]) is reported as 62.7%.
In the case of `COC(=O)[C@@]1(O)C(=O)[C@]2(CC=C(C)C)C[C@H](O)C(C)(C)OC2=C1C(C)=O`, the viability at 1 µM (HUVEC [1]) is reported as 103% and the viability at 5 µM (HUVEC [2]) is reported as 104%.
For `COC(=O)[C@]1(O)C(=O)[C@]2(CC=C(C)C)C[C@@H](O)C(C)(C)OC2=C1C(C)=O`, the viability at 1 µM (HUVEC [1]) was 103% and the viability at 5 µM (HUVEC [2]) was 104%.
For `COC(=O)[C@]1(O)C(=O)[C@]2(CC=C(C)C)C[C@H](O)C(C)(C)OC2=C1C(C)=O`, the viability at 1 µM (HUVEC [1]) was 94.2% and the viability at 5 µM (HUVEC [2]) was 93%.
In the case of `COC(=O)[C@]1(O)C(=O)[C@@]2(CC=C(C)C)C[C@H](O)C(C)(C)OC2=C1C(C)=O`, the viability at 1 µM (HUVEC [1]) is reported as 71.7% and the viability at 5 µM (HUVEC [2]) is reported as 65.1%.
Work on `Oc1ccc(/C=C/c2cc(O)cc(O)c2)cc1` [RESVERATROL] yielded a viability at 1 µM (HUVEC [1]) of 86.4% and a viability at 5 µM (HUVEC [2]) of 103%.
